Key:
[1] = molecular target: benzodiazepine receptor; assay: affinity for the benzodiazepine receptor, [3H] flunitrazepam radio receptor binding (Squires and Braestrup, modified); conditions: inhibition by 50% of specific binding of 0.6 nM [3H] flunitrazepam to rat forebrain membrane preparations
Protocol: The affinity of the compounds for the benzodiazepine receptor was assessed using the radioligand [^3 H] flunitrazepam and modifications of the original radio receptor binding method of Squires and Braestrup [Nature, Vol. 266 (1977) p. 732]. The values given in Table II are nanomolar concentrations of test drug which inhibited the specific binding of 0.6 nM [^3 H] flunitrazepam to rat forebrain membrane preparations by 50% (IC50 nM).

[2] = Geller conflict, screening for anxiolytic activity (conflict method of Geller et al, modified); format: in vivo; conditions: po; read-out: GELLER CONFLICT MED (minimum effective dose at which there was an observed increase in shocks above control)
Protocol: Screening for anxiolytic activity was carried out by modifications of the conflict method of Geller et al [Psychopharmacologia, (1960), Vol. I, p. 482]. The values given in Table II are the minimum effective doses at which there was an observed increase in shocks above control (MED mg/kg po).

| Structure (SMILES) | IC50 [1] | minimal effective dose [2] |
| --- | --- | --- |
| CCn1c(OC)cc2nc(C(=O)c3ccccc3)cn2c1=O [Example 2, 2-benzoyl-6-ethyl-7-methoxyimidazo[1,2-c]pyrimidin-5-one] | 2000 nM | 2 mg/kg |
| CCCn1c(OC)cc2nc(C(=O)c3ccccc3)cn2c1=O [Example 3, 2-benzoyl-7-methoxy-6-propyl-imidazo[1,2-c]pyrimidin-5-one] | 1000 nM | 10 mg/kg |
| COc1cc2nc(C(=O)c3ccccc3)cn2c(C)n1 [Example 4, (7-methoxy-5-methyl-imidazo[1,2-c]pyrimidin-2-yl)-phenylmethanone] | 520 nM | 50 mg/kg |
| CCc1nc(OC)cc2nc(C(=O)c3ccccc3)cn12 [Example 5, (5-ethyl-7-methoxy-imidazo[1,2-c]pyrimidin-2-yl)phenylmethanone] | 215 nM | 10 mg/kg |
| C=CCn1c(OC)cc2nc(C(=O)c3ccccc3)cn2c1=O [Example 9, 6-allyl-2-benzoyl-7-methoxy-imidazo[1,2-c]pyrimidin-5-one] | 500 nM | 5 mg/kg |
| COc1cc2nc(C(=O)c3ccccc3)cn2c(OC)n1 [Example 10, (5,7-dimethoxy-imidazo[1,2-c]pyrimidin-2-yl) phenylmethanone] | 1000 nM | 10 mg/kg |
| CCOc1nc(OC)cc2nc(C(=O)c3ccccc3)cn12 [Example 11, (5-ethoxy-7-methoxy-imidazo[1,2-c]pyrimidin-2-yl) phenylmethanone] | 890 nM |  |
| COc1cc2nc(C(=O)c3ccccc3)cn2c(SC)n1 [Example 12, {7-methoxy-5-methylthio-imidazo[1,2-c]pyrimidin-2-yl}phenylmethanone] | 126 nM | 5 mg/kg |
| CSc1cc2nc(C(=O)c3ccccc3)cn2c(SC)n1 [Example 13, {5,7-bis(methylthio)-imidazo[1,2-c]pyrimidin-2-yl}phenylmethanone] | 18 nM | 50 mg/kg |
| CCn1c(SC)cc2nc(C(=O)c3ccccc3)cn2c1=O [Example 14, 2-benzoyl-6-ethyl-7-methylthio-imidazo[1,2-c]pyrimidin-5-one] | 140 nM | 5 mg/kg |
| C=CCn1c(SC)cc2nc(C(=O)c3ccccc3)cn2c1=O [Example 15, 6-allyl-2-benzoyl-7-methylthio-imidazo[1,2-c]pyrimidin-5-one] | 120 nM | 50 mg/kg |

From US4643999A, “2-substituted imidazo[1,2-c]pyrimidines having anxiolytic properties” (priority 1983, dated 1987)
